Test results from ChEMBL document CHEMBL5046247, “Hexahydroazulene-2(1H)-one Sesquiterpenoids with Bridged Cyclobutane, Oxetane, and Tetrahydrofuran Rings from the Stems of Daphne papyracea with α-Glycosidase Inhibitory Activity” (J Nat Prod, 2022).

Experiment: Inhibition of Saccharomyces cerevisiae alpha-glucosidase assessed as reduction in PNP formation using alpha-PNPG as substrate incubated for 30 mins by microplate reader assay

| SMILES | IC50 |
| --- | --- |
| O=C(CCCCc1ccccc1)c1ccc(O)cc1 | 126 µM |
| O=C(CC[C@H](O)C(=O)c1ccc(O)cc1)c1ccccc1 | 139 µM |
| CC1=C2[C@@H](O)[C@@]3(C)CC(=O)[C@@]4(C)[C@]2(CC1=O)C[C@]43C | 159 µM |
| CC1=C2C[C@H](C(C)C)C[C@@H]3O[C@@]2(CC1=O)[C@@]3(C)O | 102 µM |
| O=C(/C=C/CCc1ccccc1)c1ccc(O)cc1 | 43.3 µM |
| CO[C@@H](CCc1ccccc1)CC(=O)c1ccccc1 | 145 µM |
| C[C@H]1O[C@H](O[C@H]2[C@H](O)[C@@H](O)[C@@H](O[C@H]3[C@H](O)[C@@H](O)C(O)O[C@@H]3CO)O[C@@H]2CO)[C@H](O)[C@@H](O)[C@@H]1N[C@H]1C=C(CO)[C@@H](O)[C@H](O)[C@H]1O (some centres not stated) [ACARBOSE] | 578 µM |
